Results as given in ChEMBL document CHEMBL1949534, “Two-step bioorthogonal activity-based proteasome profiling using copper-free click reagents: a comparative study” (Bioorg Med Chem, 2012).
The source made the active and inactive calls.

What was measured:
Proteasome [1] = test: Binding affinity to proteasome in azido-BODIPY-epoxomicin treated HEK293T cell lysates at 5 uM at 37 degC up to 4 hrs by SDS-PAGE-based fluorescence analysis; type: subcellular; settings: Homo sapiens, HEK-293T
HeLa [2] = test: Binding affinity to proteasome in human HeLa cells assessed as fluorescence at 5 uM pretreated with azido-BODIPY-epoxomicin for 2 hrs followed by 4 hrs of incubation with compound measured post washing by SDS-PAGE-based Western blot analysis
Proteasome [3] = test: Binding affinity to proteasome in azido-BODIPY-epoxomicin treated HEK293T cell lysates at 1 to 100 uM after 1 hr by Western blot analysis with streptavidin-HRP; type: subcellular; settings: Homo sapiens, HEK-293T
Proteasome [4] = test: Binding affinity to proteasome in azido-BODIPY-epoxomicin treated HEK293T cell lysates at 5 uM at 0 degC by SDS-PAGE-based fluorescence analysis; type: subcellular; settings: Homo sapiens, HEK-293T
Proteasome [5] = test: Binding affinity to proteasome in azido-BODIPY-epoxomicin treated HEK293T cell lysates at 50 to 100 uM after 1 hr by SDS-PAGE-based fluorescence analysis; type: subcellular; settings: Homo sapiens, HEK-293T
Proteasome [6] = test: Binding affinity to proteasome in azido-BODIPY-epoxomicin treated HEK293T cell lysates at 5 uM at 37 degC after 2 hrs by SDS-PAGE-based fluorescence analysis; type: subcellular; settings: Homo sapiens, HEK-293T
Proteasome [7] = test: Binding affinity to proteasome in azido-BODIPY-epoxomicin treated HEK293T cell lysate at 50 uM at 37 degC up to 4 hrs by SDS-PAGE-based fluorescence analysis; type: subcellular; settings: Homo sapiens, HEK-293T
Proteasome [8] = test: Binding affinity to proteasome in azido-BODIPY-epoxomicin treated HEK293T cell lysates at 50 uM at 0 degC by SDS-PAGE-based fluorescence analysis; type: subcellular; settings: Homo sapiens, HEK-293T
HeLa [9] = test: Binding affinity to proteasome in human HeLa cells assessed as fluorescence at 100 uM pretreated with azido-BODIPY-epoxomicin for 2 hrs followed by 4 hrs of incubation with compound measured post washing by SDS-PAGE-based Western blot analysis
Proteasome [10] = test: Binding affinity to proteasome in azido-BODIPY-epoxomicin treated HEK293T cell lysates at 0.5 uM at 0 degC by SDS-PAGE-based fluorescence analysis; type: subcellular; settings: Homo sapiens, HEK-293T
HeLa [11] = test: Binding affinity to proteasome in human HeLa cells assessed as fluorescence at 0.5 uM pretreated with azido-BODIPY-epoxomicin for 2 hrs followed by 4 hrs of incubation with compound measured post washing by SDS-PAGE-based Western blot analysis
Proteasome [12] = test: Binding affinity to proteasome in azido-BODIPY-epoxomicin treated HEK293T cell lysates at 0.5 uM at 37 degC after 30 mins by SDS-PAGE-based fluorescence analysis; type: subcellular; settings: Homo sapiens, HEK-293T
Proteasome [13] = test: Binding affinity to proteasome in azido-BODIPY-epoxomicin treated HEK293T cell lysates at 5 uM after 1 hr by SDS-PAGE-based fluorescence analysis; type: subcellular; settings: Homo sapiens, HEK-293T

Measured: Activity

O=C(CCCC[C@@H]1SC[C@@H]2NC(=O)N[C@@H]21)NCCOCCOCCNC(=O)C1(F)C#CCCCCC1 (stereo partly drawn)
active: Proteasome [1] | HeLa [2] | Proteasome [3] | Proteasome [4] | Proteasome [5]

O=C(CCCC[C@@H]1SC[C@@H]2NC(=O)N[C@@H]21)NCCOCCOCCOCCNC(=O)OC[C@@H]1[C@@H]2CCC#CCC[C@@H]21
active: HeLa [2] | Proteasome [3] | Proteasome [6] | Proteasome [4] | Proteasome [5]

COC(=O)c1ccc(C(=O)NCCOCCOCCNC(=O)CCCC[C@@H]2SC[C@@H]3NC(=O)N[C@@H]32)cc1P(c1ccccc1)c1ccccc1
active: Proteasome [7] | Proteasome [8] | HeLa [9]

O=C(CCCC[C@@H]1SC[C@@H]2NC(=O)N[C@@H]21)NCCOCCOCCOCCNC(=O)OC1Cc2ccccc2C#Cc2ccccc21 (stereo partly drawn)
active: Proteasome [10] | HeLa [11] | Proteasome [12] | Proteasome [13] | Proteasome [3]
